Measurements from US9206130B2, “Quinoline derivatives as AXL kinase inhibitors” (Max-Planck-Gesellschaft zur Förderung der Wissenschaften …, priority 2008, dated 2015).

Legend:
[1] = target: T1, wild type AXL (wtAXL) receptor tyrosine kinase (Homo sapiens, UniProt P30530); experiment: NIH-3T3-AXL cellular tyrosine kinase assay (inhibition of AXL phosphorylation); type: cell-based; conditions: AXL phosphorylation in NIH-3T3-AXL (clone 22) cells, serum-depleted, 2 h with compound, immunoprecipitation / anti-phosphotyrosine blot
T1 construct: WtAXL cDNA was cloned into vector pLXSN(ESK) and transfected into Phoenix E packaging cells; expressed in transfected cells; host or cells: NIH3T3 N7 mouse fibroblasts, retrovirally infected (clone 22)
T1 sequence (P30530 26-894): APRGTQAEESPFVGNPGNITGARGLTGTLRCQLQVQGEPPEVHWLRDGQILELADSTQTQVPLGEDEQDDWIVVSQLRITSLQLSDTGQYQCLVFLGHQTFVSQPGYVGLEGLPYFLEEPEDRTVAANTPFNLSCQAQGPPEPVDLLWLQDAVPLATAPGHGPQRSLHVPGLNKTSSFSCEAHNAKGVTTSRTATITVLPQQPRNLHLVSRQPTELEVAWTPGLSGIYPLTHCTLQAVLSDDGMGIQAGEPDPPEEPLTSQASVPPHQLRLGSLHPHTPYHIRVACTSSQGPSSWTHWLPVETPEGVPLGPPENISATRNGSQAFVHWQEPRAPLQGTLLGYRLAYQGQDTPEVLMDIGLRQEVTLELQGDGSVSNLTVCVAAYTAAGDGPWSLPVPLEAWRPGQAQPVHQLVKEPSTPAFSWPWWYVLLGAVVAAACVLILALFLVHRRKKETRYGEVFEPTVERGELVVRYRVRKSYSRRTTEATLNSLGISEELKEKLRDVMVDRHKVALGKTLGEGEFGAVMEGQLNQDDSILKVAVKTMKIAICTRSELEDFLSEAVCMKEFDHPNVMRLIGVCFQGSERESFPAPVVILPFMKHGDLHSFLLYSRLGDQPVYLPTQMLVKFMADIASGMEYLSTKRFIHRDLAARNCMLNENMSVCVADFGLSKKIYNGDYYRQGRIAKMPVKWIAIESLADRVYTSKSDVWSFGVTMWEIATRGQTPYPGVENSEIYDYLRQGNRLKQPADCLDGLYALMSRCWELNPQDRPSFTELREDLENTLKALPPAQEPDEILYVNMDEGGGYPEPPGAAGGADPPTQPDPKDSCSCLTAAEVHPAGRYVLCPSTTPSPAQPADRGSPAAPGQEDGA
Procedure, shortened: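 Compound inhibition of AXL autophosphorylation was read by 4G10 immunoblot after anti-AXL immunoprecipitation from lysates. Cells: NIH3T3 lines stably carrying retroviral wild-type human AXL, treated 2 h with compound dilution series.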

Structure (SMILES) | IC50 [1] [µM] | melting point [°C]
COc1cc2nccc(Oc3ccc(NS(=O)(=O)c4ccc5c(c4)CC(=O)N5C)cc3OC)c2cc1OC [Example A145, 1-Methyl-2-oxo-2,3-dihydro-1H-indole-5-sulfonic acid [4-(6,7-dimethoxy-quinolin-4-yloxy)-3-methoxy-phenyl]-amide] | > 10 | 150 to 152
COc1cc2nccc(Oc3ccc(NS(=O)(=O)c4cc(Cl)cc(Cl)c4O)cc3OC)c2cc1OC [Example A156, 3,5-Dichloro-N-[4-(6,7-dimethoxy-quinolin-4-yloxy)-3-methoxy-phenyl]-2-hydroxy-benzenesulfonamide] | > 1 | > 240
COc1cc2nccc(Oc3ccc(NS(=O)(=O)c4ccc(F)c(F)c4)c(F)c3)c2cc1OC [Example A3, N-[4-(6,7-Dimethoxy-quinolin-4-yloxy)-2-fluoro-phenyl]-3,4-difluoro-benzenesulfonamide] | 3.4 | 217 to 219
COc1cc2nccc(Oc3ccc(NS(=O)(=O)c4cccc(-c5ccccc5)c4)cc3F)c2cc1OC [Example A97, Biphenyl-3-sulfonic acid [4-(6,7-dimethoxy-quinolin-4-yloxy)-3-fluoro-phenyl]-amide] | 0.54 | 109 to 111
COc1ccc(S(=O)(=O)Nc2ccc(Oc3ccnc4cc(OC)c(OC)cc34)cc2F)cc1F [Example A88, N-[4-(6,7-Dimethoxy-quinolin-4-yloxy)-2-fluoro-phenyl]-3-fluoro-4-methoxy-benzenesulfonamide] | > 1 | 230 to 232
COc1cc2nccc(Oc3ccc(NS(=O)(=O)c4cc(F)ccc4F)cc3OC)c2cc1OC [Example A139, N-[4-(6,7-Dimethoxy-quinolin-4-yloxy)-3-methoxy-phenyl]-2,5-difluoro-benzenesulfonamide] | 2.2 | 222 to 224
COc1cc2nccc(Oc3ccc(NS(=O)(=O)c4ccc(-c5ccccc5)cc4)cc3F)c2cc1OC [Example A107, Biphenyl-4-sulfonic acid [4-(6,7-dimethoxy-quinolin-4-yloxy)-3-fluoro-phenyl]-amide] | > 10 | 167 to 171
COc1cc2nccc(Oc3ccc(NS(=O)(=O)c4cccc(-c5ncccn5)c4)c(C)c3)c2cc1OC [Example A93, N-[4-(6,7-Dimethoxy-quinolin-4-yloxy)-2-methyl-phenyl]-3-pyrimidin-2-yl-benzenesulfonamide] | > 3 | 103 to 105
COc1cc2nccc(Oc3ccc(NS(=O)(=O)c4ccc(F)c(F)c4F)c(F)c3)c2cc1OC [Example A20, N-[4-(6,7-Dimethoxy-quinolin-4-yloxy)-2-fluoro-phenyl]-2,3,4-trifluoro-benzenesulfonamide] | 5.05 | 188 to 190
COc1cc2nccc(Oc3ccc(NS(=O)(=O)c4cccc(F)c4C)c(F)c3)c2cc1OC [Example A58, N-[4-(6,7-Dimethoxy-quinolin-4-yloxy)-2-fluoro-phenyl]-3-fluoro-2-methyl-benzenesulfonamide] | > 1 | 204 to 206
COc1cc2nccc(Oc3ccc(NS(=O)(=O)c4ccc(Br)c(Cl)c4)cc3OC)c2cc1OC [Example A122, 4-Bromo-3-chloro-N-[4-(6,7-dimethoxy-quinolin-4-yloxy)-3-methoxy-phenyl]-benzenesulfonamide] | > 10 | 110 to 113
COc1cc2nccc(Oc3ccc(NS(=O)(=O)c4cc(Cl)cc(Cl)c4OC)c(C)c3)c2cc1OC [Example A111, 3,5-Dichloro-N-[4-(6,7-dimethoxy-quinolin-4-yloxy)-2-methyl-phenyl]-2-methoxy-benzenesulfonamide] | > 3 | 159 to 162
COc1cc2nccc(Oc3ccc(NS(=O)(=O)c4ccc(Br)cc4OC(F)(F)F)cc3)c2cc1OC [Example A149, 4-Bromo-N-[4-(6,7-dimethoxy-quinolin-4-yloxy)-phenyl]-2-trifluoromethoxy-benzenesulfonamide] | > 3 | 237 to 239
COc1cc2nccc(Oc3ccc(NS(=O)(=O)c4ccc(Br)c(F)c4)c(F)c3)c2cc1OC [Example A11, 4-Bromo-N-[4-(6,7-dimethoxy-quinolin-4-yloxy)-2-fluoro-phenyl]-3-fluoro-benzenesulfonamide] | 2.26 | 209 to 211
COc1cc2nccc(Oc3ccc(NS(=O)(=O)c4ccc(Cl)cc4F)cc3)c2cc1OC [Example A134, 4-Chloro-N-[4-(6,7-dimethoxy-quinolin-4-yloxy)-phenyl]-2-fluoro-benzenesulfonamide] | > 1 | 218 to 220
COc1cc2nccc(Oc3ccc(NS(=O)(=O)C4CC4)c(F)c3)c2cc1OC [Example A33, Cyclopropanesulfonic acid [4-(6,7-dimethoxy-quinolin-4-yloxy)-2-fluoro-phenyl]-amide] | > 10 | 179 to 180
COc1cc2nccc(Oc3ccc(NS(=O)(=O)c4cc(Cl)c(C)cc4OC)cc3)c2cc1OC [Example A69, 5-Chloro-N-[4-(6,7-dimethoxy-quinolin-4-yloxy)-phenyl]-2-methoxy-4-methyl-benzenesulfonamide] | > 10 | 236 to 238

The next lines start with the values.

IC50 [1] [µM] | melting point [°C] | Structure (SMILES)
> 10 | 182 to 184 | Cc1cc(Oc2ccc(NS(=O)(=O)c3cc4ccccc4s3)c(F)c2)c2cccc(C(F)(F)F)c2n1 [Example C17, Benzo[b]thiophene-2-sulfonic acid [2-fluoro-4-(2-methyl-8-trifluoromethyl-quinolin-4-yloxy)-phenyl]-amide]
< 1 | 194 to 195 | Cc1cc(Oc2ccc(NS(=O)(=O)c3cc(F)cc(F)c3)cc2)c2cc(F)ccc2n1 [Example B13, 3,5-Difluoro-N-[4-(6-fluoro-2-methyl-quinolin-4-yloxy)-phenyl]-benzenesulfonamid]
0.068 | 206 to 208 | COc1cc2c(Oc3ccc(NS(=O)(=O)c4ccccc4OC(F)(F)F)cc3F)ccnc2cc1OCCCN1CCC(C)CC1 [Example D33, N-(3-Fluoro-4-{6-methoxy-7-[3-(4-methyl-piperidin-1-yl)-propoxy]-quinolin-4-yloxy}-phenyl)-2-trifluoromethoxy-benzenesulfonamide]
0.069 | 185 to 187 | COc1cc2c(Oc3ccc(NS(=O)(=O)c4ccccc4OC(F)(F)F)cc3F)ccnc2cc1OCCN1CCOCC1 [Example D06, N-{3-Fluoro-4-[6-methoxy-7-(2-morpholin-4-yl-ethoxy)-quinolin-4-yloxy]-phenyl}-2-trifluoromethoxy-benzenesulfonamide]
> 10 | 228 to 229 | COc1cc2c(Oc3ccc(NS(=O)(=O)c4cccc(-c5ccccc5)c4)c(F)c3)ccnc2cc1OCc1ccccc1 [Example D01, Biphenyl-3-sulfonic acid [4-(7-benzyloxy-6-methoxy-quinolin-4-yloxy)-2-fluoro-phenyl]-amide]
8 | 150 to 151 | COc1cccc(S(=O)(=O)Nc2ccc(Oc3cc(C)nc4ccc(F)cc34)cc2F)c1 [Example B3, N-[2-Fluoro-4-(6-fluoro-2-methyl-quinolin-4-yloxy)-phenyl]-3-methoxy-benzenesulfonamide]
> 10 | 242 to 244 | COc1ccc(S(=O)(=O)Nc2ccc(Oc3cc(C)nc4c(C(F)(F)F)cccc34)c(F)c2)c2ccccc12 [Example C08, 4-Methoxy-naphthalene-1-sulfonic acid [3-fluoro-4-(2-methyl-8-trifluoromethyl-quinolin-4-yloxy)-phenyl]-amide]
> 10 | 223 to 225 | Cc1cc(Oc2ccc(NS(=O)(=O)c3cccc4ccccc34)cc2)c2cc(F)ccc2n1 [Example B20, Naphthalene-1-sulfonic acid [4-(6-fluoro-2-methyl-quinolin-4-yloxy)-phenyl]-amide]
> 10 | 202 to 203 | Cc1cc(Oc2ccc(NS(=O)(=O)c3ccc(F)c(Cl)c3)c(F)c2)c2cccc(C(F)(F)F)c2n1 [Example C12, 3-Chloro-4-fluoro-N-[2-fluoro-4-(2-methyl-8-trifluoromethyl-quinolin-4-yloxy)-phenyl]-benzenesulfonamide]
